Test results published in the supplement of paper PMC12317010.
Counter-ions that a name gives are not always drawn.

Experiment: collision cross section in nitrogen (drift tube, single-field); higher = larger gas-phase ion size
[1] = ion type: [M-H], ion source: ESI, ion mode: Negative
[2] = ion type: [M+H], ion source: ESI, ion mode: Positive
[3] = ion type: [M+H], ion source: APCI, ion mode: Positive
[4] = ion type: [M+Na], ion source: ESI, ion mode: Positive
[5] = ion type: [M+], ion source: APCI, ion mode: Positive
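Note: chemical standards at 10 µM analysed by drift tube IMS-QTOF MS in about 3.95 torr nitrogen, mean of duplicate injections differing ≤1%, mass error below 10 ppm.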

Row | Compound | collision cross section in nitrogen [1] [Å²] | collision cross section in nitrogen [2] [Å²] | collision cross section in nitrogen [3] [Å²] | collision cross section in nitrogen [4] [Å²] | collision cross section in nitrogen [5] [Å²]
1 | O=C(O)c1cc(Cl)cc(Cl)c1O [3,5-Dichlorosalicylic acid] | 130.7 |  |  |  | 
2 | N[C@@H](Cc1cc(I)c(Oc2ccc(O)c(I)c2)c(I)c1)C(=O)O [3,5,3′-Triiodo-L-thyronine monosodium salt] | 198.1 | 204.8 |  |  | 
3 | CC(c1ccc(O)cc1)c1ccc(O)cc1 [Bisphenol E] | 158.3 |  |  |  | 
4 | OCCN(CCO)c1ccccc1 [N-Phenyl diethanolamine] |  | 137.9 | 137.7 |  | 
5 | OC[C@@H](O)[C@H](O)[C@@H](O)[C@@H](O)CO [L-Glucitol] | 132.8 |  |  | 142.9 | 
6 | COS(=O)(=O)O [Sodium methyl sulfate] | 113.1 |  |  |  | 
7 | CCOC(=O)NCCC[Si](OCC)(OCC)OCC [Ethyl [3-(triethoxysilyl)propyl]carbamate] |  |  |  | 171.4 | 
8 | c1cc(N(CC2CO2)CC2CO2)ccc1OCC1CO1 (centres undefined) [4-(Diglycidylamino)phenyl glycidyl ether] |  | 167 | 167.5 | 161.7 | 
9 | CCN(CC)c1ccc2c(c1)Oc1cc(N(CC)CC)ccc1C21OC(=O)c2ccccc21 [C.I. Solvent Red 49] |  | 218.5 | 217.9 | 230.2 | 
10 | COC(=O)N(C(=O)N1COC2(C(=O)OC)Cc3cc(Cl)ccc3C2=N1)c1ccc(OC(F)(F)F)cc1 (racemic) [(+/-)-Indoxacarb] |  | 205.6 |  | 220.6 | 
11 | Nc1nc2ccc([N+](=O)[O-])cc2s1 [2-Amino-6-nitrobenzothiazole] | 131.3 | 143.6 | 144.1 |  | 
12 | CCCCCCCCCCCC[N+](C)(C)[O-] [N,N-Dimethyldodecylamine-N-oxide] |  | 174.4 | 175.3 | 170.8 | 
13 | Sc1nc2ccccc2s1 [2-Mercaptobenzothiazole] | 128.2 |  |  |  | 
14 | CC(C)(c1ccc(O)cc1)c1ccc(O)cc1 [Bisphenol A] | 161.9 |  |  |  | 
15 | C[C@@H]1CN(c2c(F)c(N)c3c(=O)c(C(=O)O)cn(C4CC4)c3c2F)C[C@H](C)N1 [Sparfloxacin] |  | 190.2 |  |  | 
16 | O=Cc1ccccc1S(=O)(=O)O [Sodium 2-formylbenzenesulfonate] | 130.9 |  |  |  | 
17 | CCCCCCCC(=O)OCC [Ethyl octanoate] | 149.5 |  |  |  | 
18 | NNC(=O)CCCCC(=O)NN [Hexanedihydrazide] | 138.4 |  |  | 141.5 | 
19 | Nc1nc(N)c2nc(-c3ccccc3)c(N)nc2n1 [Triamterene] | 157.7 | 158.3 | 158.4 | 173 | 155
20 | CCCCCCCCCCCCCC(=O)OC(CO)CO [2-Myristoyl glycerol] |  |  |  | 183.7 | 
21 | CCOC(=O)COC(=O)c1cc(Oc2ccc(C(F)(F)F)cc2Cl)ccc1[N+](=O)[O-] [Fluoroglycofen-ethyl] |  |  |  | 210.7 | 
22 | Cc1cc(SC2=C(O)C[C@@](CCc3ccc(N)cc3)(C(C)C)OC2=O)c(C(C)(C)C)cc1CO [CI-1029] | 214.2 |  |  | 210.5 | 
23 | CC(=O)O[C@]1(C(C)=O)CC[C@H]2[C@@H]3C[C@H](C)C4=CC(=O)CC[C@]4(C)[C@H]3CC[C@@]21C [Medroxyprogesterone acetate] |  |  |  | 212.7 | 
24 | CN(C)c1ccc(C(c2ccccc2)c2ccc(N(C)C)cc2)cc1 [Leucomalachite green] |  | 198.9 | 199.9 |  | 
25 | CCCCC[C@H](O)CC(=O)CCc1ccc(O)c(OC)c1 [(6)-Gingerol] | 169.5 |  |  | 180.3 | 
26 | C[C@H](CCC(=O)NCC(=O)O)[C@H]1CC[C@H]2[C@@H]3[C@H](O)C[C@@H]4C[C@H](O)CC[C@]4(C)[C@H]3C[C@H](O)[C@]12C [Glycocholic acid] | 202.5 |  |  | 201.7 | 
27 | CC(CCOC(=O)c1ccccc1C(=O)OCC[C@@H](C)CC(C)(C)C)CC(C)(C)C (some centres undefined) [Bis(3,5,5-trimethylhexyl) phthalate] |  |  |  | 219.6 | 

Row | Compound | collision cross section in nitrogen [1] [Å²] | collision cross section in nitrogen [2] [Å²] | collision cross section in nitrogen [3] [Å²] | collision cross section in nitrogen [4] [Å²] | collision cross section in nitrogen [5] [Å²]
28 | CCCCC(CC)COP(=O)(OCC(CC)CCCC)OCC(CC)CCCC (centres undefined) [Tris(2-ethylhexyl) phosphate] |  |  |  | 231.9 | 
29 | CCCCCCCCCCCC(=O)NCCCN(C)C [N-[3-(Dimethylamino)propyl]dodecanamide] |  | 185.2 | 185.5 | 181.8 | 
30 | c1cc(N(CC2CO2)CC2CO2)ccc1Cc1ccc(N(CC2CO2)CC2CO2)cc1 (centres undefined) [4,4'-Methylenebis(N,N-diglycidylaniline)] |  | 215.2 | 215.7 | 199.7 | 
31 | CC(=O)Nc1ccc(N=Nc2cc(C)ccc2O)cc1 [C.I. Disperse Yellow 3] | 168.7 | 168.2 | 167.8 |  | 
32 | Oc1c(Cl)ccc(Cl)c1Cl [2,3,6-Trichlorophenol] | 128.9 |  |  |  | 
33 | COc1ccccc1N=Nc1c(S(=O)(=O)O)cc2cc(S(=O)(=O)O)cc(NC(C)=O)c2c1O [C.I. Acid Violet 12, disodium salt] | 218 |  |  |  | 
34 | Nc1c2ccccc2nc2ccccc12 [9-Aminoacridine hydrochloride monohydrate] | 139.3 | 138.9 | 138.8 |  | 139
35 | Cc1oc(C)c(C(=O)Nc2ccccc2)c1C [Methfuroxam] |  | 153.3 | 152.5 |  | 
36 | CC1(C)[C@H](/C=C2\CCSC2=O)[C@@H]1C(=O)OCc1coc(Cc2ccccc2)c1 [Kadethrin] |  |  |  | 192.5 | 
37 | O=S(=O)(c1ccc(OCc2ccccc2)cc1)c1ccccc1O [BPS-MPE4] | 183.9 | 186.1 |  | 201.9 | 
38 | CC(C)(C)NC(=O)[C@H]1CC[C@H]2[C@@H]3CC[C@H]4NC(=O)C=C[C@]4(C)[C@H]3CC[C@]12C [Finasteride] | 198.1 | 203.3 | 204.7 | 226.8 | 
39 | CCOC(=O)[C@@H](O)[C@H](O)C(=O)OCC [(-)-Diethyl-D-tartrate] |  |  |  | 153.6 | 
40 | O=C(O)C1C2CCC(O2)C1C(=O)O (centres undefined) [Endothal] | 135.6 |  |  | 140.1 | 
41 | CCCOCCOCCOCCO [2-[2-(2-Propoxyethoxy)ethoxy]ethanol] |  |  |  | 144.4 | 
42 | Cc1cc(C)cc(OCC2CNC(=O)O2)c1 (centres undefined) [Metaxalone] |  |  |  | 152.3 | 
43 | Cc1cc(O)c(C(C)C)cc1Cl [6-Chlorothymol] | 140.5 |  |  |  | 
44 | CN(C)C(=N)NC(=N)N [Metformin] |  | 125.7 | 125.1 |  | 
45 | CN(C)CCC(c1ccc(Cl)cc1)c1ccccn1 (centres undefined) [Chlorpheniramine maleate] |  | 164.6 | 164 |  | 
46 | CCOc1ccc(NC(N)=O)cc1 [Dulcin] |  | 144.1 | 144.5 | 149.7 | 
47 | Clc1cc(Cl)c2c(c1)N=C1CCCCCN1C2 |  | 159.3 | 158.5 |  | 
48 | Oc1cccc(O)n1 [6-Hydroxy-2-oxopyridinium chloride] | 115 | 120.2 |  |  | 
49 | COc1ccc([N+](=O)[O-])cc1O [Sodium 2-methoxy-5-nitrophenolate] | 129.6 |  |  |  | 
50 | CC(C)CCCCCCCCCCCCCCC(=O)O [Isooctadecanoic acid] | 177.8 |  |  |  | 
51 | Cc1cccc(Nc2ccccc2C(=O)O)c1C [Mefenamic acid] | 160.9 |  |  |  | 152.3
52 | CCOC(=O)CP(=O)(OCC)OCC [Triethyl phosphonoacetate] |  | 143.7 | 143.6 | 155 | 
53 | CCCCCCCCCOS(=O)(=O)O [Sodium nonyl sulfate] | 154.5 |  |  |  | 
